In patent publication US8580959B2, “Azolotriazinone melanin concentrating hormone receptor-1 antagonists” (Bristol-Myers Squibb Company, priority 2008, dated 2013):
Counter-ions that a name gives are not always drawn.

Key:
Male SPRAGUE DAWLEY rats = experiment: Assessment of in vivo MCHR activity (body weight, rats with choice of chow and high fat high sugar diet); design: species or system rat; conditions: dose 30 mg/kg p.o. daily day 0 through day 4, rats; parent dosed as its prodrug example (22, 63, 50)
Method: Assessment of In Vivo MCHR Activity
Male SPRAGUE DAWLEY® (CD, Charles River Breeding Laboratory) rats weighing approximately 240 grams were place in individual plastic cages with ALPHADRI® bedding. The room was maintained at 72° F. and 50% humidity, and a 12/12 light dark cycle with lights out at 1600 hours. The rats were conditioned for 5 days prior to the start of the study to having a choice of foods. A normal chow (HARLAN TEKLAD®, 2018) that contains 18% protein, 5% fat and 73% carbohydrate and a high fat high sugar diet (Research Diets (D2327)) that contains 20% protein, 40% fat and 40% carbohydrate where the carbohydrate is entirely sucrose and the fat is soybean and coconut oil. […] Body weight and consumption of both kinds of food as well as water intake were measured daily. Water was available ad lib throughout the study. Food consumption is presented as daily caloric consumption which is the sum of grams of chow multiplied by the Kcal per gram (3.5) plus grams of high fat high sugar multiplied by Kcal per gram (4.59).
Baseline body weight was measured prior to drug treatment on day 0 of the study. Baseline food consumption was the average of the 3 days prior to the first drug treatment. Drug was administered daily p.o. at 2.0 ml/kg at 1500 hours beginning on day 0 and continuing daily through day 4 as a suspension in 0.5% methyl cellulose, 0.1% Tween 80 in water at 3.0, 10 and 30 mg/kg p.o. All data were evaluated using ANOVA and Fishers PLSD statistics.

[1] = biological target: T1, mutated (E4Q, A5T) hMCHR1 receptor (Homo sapiens, UniProt Q99705, A5T/E4Q); experiment: Radioligand binding assay for assessment of MCHR1 activity (human); conditions: membranes of HEK-293 cells, [Phe13,[125I]Tyr19]-MCH competition
T1 construct: expressed in transfected cells; host or cells: HEK-293 (stably transfected), membranes
Method: Radioligand Binding Assay for Assessment of MCHR1 Activity
Membranes from stably transfected HEK-293 cells expressing a mutated (E4Q, A5T) hMCHR1 receptor were prepared by dounce homogenization and differential centrifugation. Binding experiments were carried out with 0.5-1.0 ug of membrane protein incubated in a total of 0.2 ml in 25 mM HEPES (pH 7.4) with 10 mM MgCl2, 2 mM EGTA, and 0.1% BSA (Binding Buffer) for 90 min. […] Filters were dried, 0.05 ml microscint 20 was added to each well and radioactivity was subsequently quantified by scintillation counting on a TOPCOUNT® microplate scintillation counter (Packard). Inhibitory constants were determined by nonlinear least squares analysis using a four parameter logistic equation.

MCHR1 Rat = MCHR1 Rat (Rattus norvegicus, UniProt P97639); experiment: MCHR1 rat binding (radioligand binding assay)
MCHR1 Rat, sequence (P97639 whole entry): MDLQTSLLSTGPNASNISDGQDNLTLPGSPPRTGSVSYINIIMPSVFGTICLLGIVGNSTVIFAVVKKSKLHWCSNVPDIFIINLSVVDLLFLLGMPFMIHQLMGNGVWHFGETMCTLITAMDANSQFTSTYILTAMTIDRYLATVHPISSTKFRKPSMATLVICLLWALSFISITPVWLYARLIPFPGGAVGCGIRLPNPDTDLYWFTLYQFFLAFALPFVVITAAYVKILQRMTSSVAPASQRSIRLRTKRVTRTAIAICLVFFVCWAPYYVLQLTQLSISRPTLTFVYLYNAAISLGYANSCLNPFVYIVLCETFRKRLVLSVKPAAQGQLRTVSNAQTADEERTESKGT

T1 sequence (Q99705 whole entry E4Q/A5T): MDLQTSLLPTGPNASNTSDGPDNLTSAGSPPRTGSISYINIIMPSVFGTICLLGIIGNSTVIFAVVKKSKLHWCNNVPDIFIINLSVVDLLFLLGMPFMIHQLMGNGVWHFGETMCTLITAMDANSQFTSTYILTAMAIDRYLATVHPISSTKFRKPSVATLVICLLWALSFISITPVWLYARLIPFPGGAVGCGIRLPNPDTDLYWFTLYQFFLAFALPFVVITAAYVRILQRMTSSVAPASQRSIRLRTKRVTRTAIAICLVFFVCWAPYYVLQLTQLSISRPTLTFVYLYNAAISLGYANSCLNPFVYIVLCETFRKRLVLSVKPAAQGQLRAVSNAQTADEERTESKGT

Compound | Ki [1] [nM] | Ki (MCHR1 Rat) [nM] | % Weight Reduction versus Vehicle (Male SPRAGUE DAWLEY rats) [%]
6-(4-Chlorophenyl)-3-(4-(2-hydroxy-2-methylpropoxy)-3-methoxyphenyl)pyrrolo[1,2-f][1,2,4]triazin-4(3H)-one [Example 1] | – | – | 6.9
COc1ccc(-n2cnn3cc(-c4ccc(Cl)cc4)cc3c2=O)cc1OC [Example 2, 6-(4-Chlorophenyl)-3-(3,4-dimethoxyphenyl)pyrrolo[1,2-f][1,2,4]triazin-4(3H)-one] | 21.4 | 8.29 | –
O=c1c2cc(-c3ccc(Cl)cc3)cn2ncn1-c1ccc(N2CCC(O)CC2)nc1 [Example 18, 6-(4-Chlorophenyl)-3-(6-(4-hydroxypiperidin-1-yl)pyridin-3-yl)pyrrolo[1,2-f][1,2,4]triazin-4(3H)-one] | 11.5 | – | –
O=c1c2cc(-c3ccc(Cl)cn3)cn2ncn1-c1ccc(N2CC[C@@H](O)C2)nc1 [Example 31, 6-(5-Chloropyridin-2-yl)-3-[6-(3-hydroxy-pyrrolidin-1-yl)-pyridin-3-yl]-3H-pyrrolo[2,1-f][1,2,4]triazin-4-one] | 124 | – | –
COc1cc(-n2cnn3cc(-c4ccc(Cl)cn4)cc3c2=O)ccc1OCC(C)(C)O [Example 33, 6-(5-Chloropyridin-2-yl)-3-[4-(2-hydroxy-2-methyl-propoxy)-3-methoxy-phenyl]-3H-pyrrolo[2,1-f][1,2,4]triazin-4-one] | – | – | 11.2
COc1ccc(-n2cnn3cc(-c4ccc(Cl)cc4)nc3c2=O)cc1OC [Example 38, 6-(4-Chlorophenyl)-3-(3,4-dimethoxy-phenyl)-3H-imidazo[2,1-f][1,2,4]triazin-4-one] | 76.1 | – | –
COc1cc(-n2cnn3cc(-c4ccc(Cl)cn4)cc3c2=O)ccc1OCC1(O)CC(F)(F)C1 [Example 46, 6-(5-Chloropyridin-2-yl)-3-(4-((3,3-difluoro-1-hydroxycyclobutyl)methoxy)-3-methoxyphenyl)pyrrolo[1,2-f][1,2,4]triazin-4(3H)-one-4(3H)-one] | – | – | 2.6
COc1cc(-n2cnn3cc(-c4ccc(Cl)cc4)cc3c2=O)ccc1N1C[C@H](OC(=O)[C@@H](N)C(C)C)[C@H](OC(=O)[C@@H](N)C(C)C)C1 [Example 56, (2S,2′S)-((3S,4R)-1-(4-(6-(4-Chlorophenyl)-4-oxopyrrolo[1,2-f][1,2,4]triazin-3(4H)-yl)-2-methoxyphenyl)pyrrolidine-3,4-diyl)bis(2-amino-3-methylbutanoate), 2TFA] | 9.4 | – | –
COc1cc(-n2cnn3cc(-c4ncc(Cl)cn4)cc3c2=O)ccc1OCC1(O)CC(F)(F)C1 [Example 57, 6-(5-Chloropyrimidin-2-yl)-3-(4-((3,3-difluoro-1-hydroxycyclobutyl)methoxy)-3-methoxyphenyl)pyrrolo[1,2-f][1,2,4]triazin-4(3H)-one] | 9 | – | –
CCS(=O)(=O)C[C@H](COc1ccc(-n2cnn3cc(-c4ncc(Cl)cn4)cc3c2=O)cc1OC)OC(=O)CN [Example 61, (S)-1-(4-(6-(5-Chloropyrimidin-2-yl)-4-oxopyrrolo[1,2-f][1,2,4]triazin-3(4H)-yl)-2-methoxyphenoxy)-3-(ethylsulfonyl)propan-2-yl 2-aminoacetate, TFA] | 126 | – | –

Second part, led by results:

Ki [1] [nM] | Ki (MCHR1 Rat) [nM] | Compound | % Weight Reduction versus Vehicle (Male SPRAGUE DAWLEY rats) [%]
4.42 | 2.76 | COc1cc(-n2cnn3cc(-c4ccc(Cl)cc4)cc3c2=O)ccc1OCC(C)(C)O [Example 1, 6-(4-Chlorophenyl)-3-(4-(2-hydroxy-2-methylpropoxy)-3-methoxyphenyl)pyrrolo[1,2-f][1,2,4]triazin-4(3H)-one] | –
4.49 | 2.79 | COc1cc(-n2cnn3cc(-c4ccc(Cl)cc4)cc3c2=O)ccc1OCC(O)C1CC1 (centres unmarked) [Example 3, 6-(4-Chlorophenyl)-3-(4-(2-cyclopropyl-2-hydroxyethoxy)-3-methoxyphenyl)pyrrolo[1,2-f][1,2,4]triazin-4(3H)-one] | –
0.52 | 0.7 | COc1cc(-n2cnn3cc(-c4ccc(Cl)cc4)cc3c2=O)ccc1OCCN1CCCC1 [Example 4, 6-(4-Chlorophenyl)-3-(3-methoxy-4-(2-(pyrrolidin-1-yl)ethoxy)phenyl)pyrrolo[1,2-f][1,2,4]triazin-4(3H)-one] | –
2.2 | 0.8 | COc1cc(-n2cnn3nc(-c4ccc(Cl)cc4)cc3c2=O)ccc1OCCN1CCC(O)C1 (centres unmarked) [Example 6, 6-(4-Chlorophenyl)-3-(4-(2-(3-hydroxypyrrolidin-1-yl)ethoxy)-3-methoxyphenyl)pyrazolo[1,5-f][1,2,4]triazin-4(3H)-one] | –
0.17 | – | COc1cc(-n2cnn3cc(-c4ccc(Cl)cc4)cc3c2=O)ccc1OCC(C)N1CCCC1 (centres unmarked) [Example 13, 6-(4-Chlorophenyl)-3-[3-methoxy-4-(2-pyrrolidin-1-yl-propoxy)-phenyl]-3H-pyrrolo[2,1-f] [1,2,4]triazin-4-one] | –
